According to PubChem BioAssay (NCI):
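Compound exposure: 48 hours, 5 concentrations, 96-well plates. TGI: concentration producing complete growth inhibition.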

What was measured:
Test in all cases: growth of human tumour cells (NCI), 48 h
[1] = system: 786-0 renal
[2] = system: A498 renal
[3] = system: A549 NSCLC
[4] = system: ACHN renal
[5] = system: BT-549 breast
[6] = system: CAKI-1 renal
[7] = system: COLO 205 colon
[8] = system: DU-145 prostate
[9] = system: EKVX NSCLC
[10] = system: HCC-2998 colon
[11] = system: HCT-116 colon
[12] = system: HCT-15 colon
[13] = system: HL-60(TB) leukemia
[14] = system: HOP-62 NSCLC
[15] = system: HOP-92 NSCLC
[16] = system: HS 578T breast
[17] = system: HT29 colon
[18] = system: IGROV1 ovarian
[19] = system: K-562 leukemia
[20] = system: KM12 colon
[21] = system: LOX IMVI melanoma
[22] = system: M14 melanoma
[23] = system: MALME-3M melanoma
[24] = system: MCF7 breast
[25] = system: MDA-MB-231 breast
[26] = system: MDA-MB-435
[27] = system: MDA-N
[28] = system: MOLT-4 leukemia
[29] = system: NCI-H226 lung
[30] = system: NCI-H23 lung
[31] = system: NCI-H460 lung
[32] = system: NCI-H522 lung
[33] = system: NCI/ADR-RES ovarian
[34] = system: OVCAR-3 ovarian
[35] = system: OVCAR-4 ovarian
[36] = system: OVCAR-5 ovarian
[37] = system: OVCAR-8 ovarian
[38] = system: PC-3 prostate
[39] = system: RPMI-8226 leukemia
[40] = system: RXF 393 renal
[41] = system: SF-268 CNS
[42] = system: SF-295 CNS
[43] = system: SF-539 CNS
[44] = system: SK-MEL-2 melanoma
[45] = system: SK-MEL-28 melanoma
[46] = system: SK-MEL-5 melanoma
[47] = system: SK-OV-3 ovarian
[48] = system: SN12C renal
[49] = system: SNB-19 CNS
[50] = system: SNB-75 CNS
[51] = system: SR leukemia
[52] = system: SW-620 colon
[53] = system: T-47D breast
[54] = system: TK-10 renal
[55] = system: U251 CNS
[56] = system: UACC-257 melanoma
[57] = system: UACC-62 melanoma
[58] = system: UO-31 renal
[59] = system: CCRF-CEM leukemia

**Q.** Which results are given for Cc1c2cccc(Sc3ccccc3)c2c2c3c(cccc13)[S+](c1ccccc1)C2 (stereo unspecified)?
**A.** TGI [1]: 13.9 µM; TGI [2]: 8.32 µM; TGI [3]: 14.7 µM; TGI [4]: 12.7 µM; TGI [5]: 9.87 µM; TGI [6]: 11.4 µM; TGI [7]: 2.46 µM; TGI [8]: 15.3 µM; TGI [9]: 19.5 µM; TGI [10]: 4.49 µM; TGI [11]: 9.59 µM; TGI [12]: 27.8 µM; TGI [13]: 2.82 µM; TGI [14]: 7.35 µM; TGI [15]: 6.6 µM; TGI [16]: 13.9 µM; TGI [17]: 7.38 µM; TGI [18]: 9.12 µM; TGI [19]: 11.2 µM; TGI [20]: 2.85 µM; TGI [21]: 3.52 µM; TGI [22]: 6.78 µM; TGI [23]: 4.67 µM; TGI [24]: 8.93 µM; TGI [25]: 5.68 µM; TGI [26]: 5.24 µM; TGI [27]: 13.8 µM; TGI [28]: 4.55 µM; TGI [29]: 7.54 µM; TGI [30]: 9.82 µM; TGI [31]: 4.1 µM; TGI [32]: 4.51 µM; TGI [33]: > 100 µM; TGI [34]: 6.01 µM; TGI [35]: 11.7 µM; TGI [36]: 12.1 µM; TGI [37]: 12.4 µM; TGI [38]: 5.71 µM; TGI [39]: 2.85 µM; TGI [40]: 14.9 µM; TGI [41]: 11.8 µM; TGI [42]: 6.33 µM; TGI [43]: 7.91 µM; TGI [44]: 3.71 µM; TGI [45]: 6.84 µM; TGI [46]: 2.1 µM; TGI [47]: 6.58 µM; TGI [48]: 11.5 µM; TGI [49]: 11.2 µM; TGI [50]: 8.14 µM; TGI [51]: 4.91 µM; TGI [52]: 16.7 µM; TGI [53]: 8.24 µM; TGI [54]: 9.55 µM; TGI [55]: 9.41 µM; TGI [56]: 3.57 µM; TGI [57]: 3.67 µM; TGI [58]: 8.28 µM

**Q.** O=C(O)c1c[nH]c2cc(OCc3ccccc3)ccc2c1=O was tested. Which TGI [1] did it give?
**A.** 32.5 µM

**Q.** And the TGI [2]?
**A.** 31.4 µM

**Q.** And the TGI [3]?
**A.** 35.5 µM

**Q.** What about the TGI [4] of the same compound?
**A.** 32.7 µM

**Q.** And the TGI [5]?
**A.** 32.5 µM

**Q.** And the TGI [6]?
**A.** 40.1 µM

**Q.** What about the TGI [59] of the same compound?
**A.** 53.2 µM

**Q.** What about the TGI [7] of the same compound?
**A.** 34.8 µM

**Q.** And the TGI [8]?
**A.** 33.3 µM

**Q.** What about the TGI [9] of the same compound?
**A.** 38.7 µM

**Q.** And the TGI [10]?
**A.** 32.2 µM

**Q.** And the TGI [11]?
**A.** 31 µM

**Q.** And the TGI [12]?
**A.** 36.1 µM

**Q.** What about the TGI [13] of the same compound?
**A.** 2.32 µM

**Q.** And the TGI [14]?
**A.** 35.9 µM

**Q.** And the TGI [15]?
**A.** 35.1 µM

**Q.** And the TGI [16]?
**A.** 45.2 µM

**Q.** What about the TGI [17] of the same compound?
**A.** 33.3 µM

**Q.** And the TGI [18]?
**A.** 32.4 µM

**Q.** What about the TGI [19] of the same compound?
**A.** 54.3 µM

**Q.** And the TGI [20]?
**A.** 33.8 µM

**Q.** And the TGI [22]?
**A.** 31.8 µM

**Q.** What about the TGI [23] of the same compound?
**A.** 31.7 µM

**Q.** And the TGI [24]?
**A.** 39.8 µM

**Q.** What about the TGI [25] of the same compound?
**A.** 48.6 µM

**Q.** And the TGI [26]?
**A.** 30 µM

**Q.** And the TGI [27]?
**A.** 30.9 µM

**Q.** What about the TGI [28] of the same compound?
**A.** 84 µM

**Q.** And the TGI [29]?
**A.** 33.8 µM

**Q.** And the TGI [30]?
**A.** 33.3 µM

**Q.** And the TGI [31]?
**A.** 34.5 µM

**Q.** What about the TGI [32] of the same compound?
**A.** 30.8 µM

**Q.** And the TGI [33]?
**A.** 37.8 µM

**Q.** And the TGI [34]?
**A.** 35.3 µM

**Q.** What about the TGI [35] of the same compound?
**A.** 31.1 µM

**Q.** What about the TGI [36] of the same compound?
**A.** 42.1 µM

**Q.** And the TGI [37]?
**A.** 35.3 µM

**Q.** What about the TGI [38] of the same compound?
**A.** 31.2 µM

**Q.** And the TGI [39]?
**A.** 64.9 µM

**Q.** What about the TGI [40] of the same compound?
**A.** 38.2 µM

**Q.** What about the TGI [41] of the same compound?
**A.** 29.4 µM

**Q.** And the TGI [42]?
**A.** 34.4 µM

**Q.** And the TGI [43]?
**A.** 36.8 µM

**Q.** And the TGI [44]?
**A.** 33.3 µM

**Q.** And the TGI [45]?
**A.** 30.1 µM

**Q.** What about the TGI [46] of the same compound?
**A.** 32 µM

**Q.** And the TGI [47]?
**A.** 36.6 µM

**Q.** What about the TGI [48] of the same compound?
**A.** 32.2 µM

**Q.** And the TGI [49]?
**A.** 32.4 µM

**Q.** And the TGI [50]?
**A.** 31.4 µM

**Q.** And the TGI [51]?
**A.** 53.8 µM

**Q.** What about the TGI [52] of the same compound?
**A.** 40.5 µM

**Q.** And the TGI [53]?
**A.** 38.8 µM

**Q.** What about the TGI [54] of the same compound?
**A.** 39.6 µM

**Q.** What about the TGI [55] of the same compound?
**A.** 36.1 µM

**Q.** What about the TGI [56] of the same compound?
**A.** 50.7 µM

**Q.** What about the TGI [57] of the same compound?
**A.** 30.5 µM

**Q.** What about the TGI [58] of the same compound?
**A.** 31.1 µM
